Measured values taken from US9549556B2, “Macrocyclic picolinamides as fungicides” (DOW AGROSCIENCES LLC, priority 2013, dated 2017).
Read-outs that look alike come from different tables or passages of the source.

Columns and labels:
Leptosphaeria nodorum = experiment: Wheat glume blotch (LEPTNO) disease control; assay type: in vivo; settings: 1 DP, 100 ppm
Cercospora beticola = experiment: Leaf spot of sugar beets (CERCBE) disease control; assay type: in vivo; settings: 1 DP, 100 ppm, sugar beet
Erysiphe cichoracearum = experiment: Powdery mildew of cucumber (ERYSCI) disease control; assay type: in vivo; settings: 1 DP, 100 ppm
Puccinia triticina = experiment: Wheat brown rust (PUCCRT) disease control on wheat seedlings; assay type: in vivo; settings: 121.5 g/H, low volume (track spray) application, read-out: PUCCRT disease control rating (% Control)
Uncinula necator = experiment: Grape powdery mildew (UNCINE) disease control; assay type: in vivo; settings: 1 DP, 100 ppm
[1] = system: Colletotrichum lagenarium; experiment: Cucumber anthracnose (COLLLA) disease control; assay type: in vivo, Glomerella lagenarium (anamorph Colletotrichum lagenarium); settings: 1 DP, 100 ppm
Septoria tritici = experiment: Leaf blotch of wheat (SEPTTR) disease control on wheat seedlings; assay type: in vivo, Mycosphaerella graminicola (anamorph Septoria tritici); settings: Zymoseptoria tritici, 121.5 g/H, low volume (track spray) application, read-out: SEPTTR disease control rating (% Control)
Method: Evaluation of Fungicidal Activity: Leaf Blotch of Wheat (Mycosphaerella graminicola; Anamorph: Septoria tritici; Bayer Code […]) Technical grades of materials were dissolved in acetone, which were then mixed with nine volumes of water containing 110 ppm Triton X-100. The fungicide solutions were applied onto wheat seedlings using an automated booth sprayer to run-off. All sprayed plants were allowed to air dry prior to further handling. All fungicides were evaluated using the aforementioned method for their activity vs. all target diseases. Wheat leaf blotch and brown rust activity were also evaluated using track spray applications, in which case the fungicides were formulated as EC formulations, containing 0.1% Trycol 5941 in the spray solutions. Wheat plants (variety Yuma) were grown from seed in a greenhouse in 50% mineral soil/50% soil-less Metro mix until the first leaf was fully emerged, with 7-10 seedlings per pot. These plants were inoculated with an aqueous spore suspension of Septoria tritici either prior to or after fungicide treatments. After inoculation the plants were kept in 100% relative humidity (one day in a dark dew chamber followed by two to three days in a lighted dew chamber at 20° C.) to permit spores to germinate and infect the leaf. The plants were then transferred to a greenhouse set at 20° C. for disease to develop. When disease symptoms were fully expressed on the 1st leaves of untreated plants, infection levels were assessed on a scale of 0 to 100 percent disease severity. Percent disease control was calculated using the ratio of disease severity on treated plants relative to untreated plants.

Rhyncosporium secalis = experiment: Barley scald (RHYNSE) disease control; assay type: in vivo; settings: 1 DP, 100 ppm
[2] = system: Blumeria graminis f. sp. hordei; experiment: Barley powdery mildew (ERYSGH) disease control; assay type: in vivo; settings: 1 DP, 100 ppm
Alternaria solani = experiment: Tomato early blight (ALTESO) disease control; assay type: in vivo; settings: 1 DP, 100 ppm
Pyricularia oryzae = assay type: in vivo, Magnaporthe grisea (anamorph Pyricularia oryzae); settings: 1 DP, 100 ppm, rice

## CCCC[C@H]1[C@H](C)OC(=O)[C@@H](NC(=O)c2nccc(OC)c2OC(C)=O)COC[C@@H]1OCC1CC1 [Compound 9]
Leptosphaeria nodorum
  LEPTNO disease control rating (% Control): A (>70)
Cercospora beticola
  CERCBE disease control rating (% Control): B (≦70)
Erysiphe cichoracearum
  ERYSCI disease control rating (% Control): B (≦70)
Puccinia triticina; 24 h, 1DP (1 Day Protectant)
  pest or weed control at 121.5 g/ha: > 70%
Puccinia triticina; 72 h, 3DC (3 Day Curative)
  pest or weed control at 121.5 g/ha: > 70%
Uncinula necator
  UNCINE disease control rating (% Control): A (>70)
[1]
  COLLLA disease control rating (% Control): A (>70)
Septoria tritici; 24 h, 1DP (1 Day Protectant)
  pest or weed control at 121.5 g/ha: > 70%
Septoria tritici; 72 h, 3DC (3 Day Curative)
  pest or weed control at 121.5 g/ha: > 70%
Rhyncosporium secalis
  RHYNSE disease control rating (% Control): A (>70)
[2]
  ERYSGH disease control rating (% Control): B (≦70)
Alternaria solani
  ALTESO disease control rating (% Control): B (≦70)
Pyricularia oryzae
  PYRIOR disease control rating (% Control): B (≦70)
